Results on seven compounds are retold here after patent publication US9920038B2, “Methyl oxazole orexin receptor antagonists” (MERCK SHARP & DOHME CORP., priority 2014, dated 2018).

The structures appear in SMILES notation.

For one assay, the target named is hOX1R (Homo sapiens, UniProt O43613). Put plainly: hOX1R FLIPR Ca2+ flux assay. It is filed as cell-based. Conditions: CHO cells expressing orexin-1 receptor; agonist 70 pM Ala-6,12 orexin-A; read-out: hOX1R FLIPR IC50. On the technique in general: Calcium flux is commonly read through the fluorescence of an indicator in the cells.
For a further assay, the target named is human orexin-2 receptor (Homo sapiens (Human), UniProt O43614). Put plainly: hOX2R FLIPR Ca2+ flux assay. It is filed as cell-based. Particulars: CHO cells expressing human orexin-2 receptor; agonist 70 pM Ala-6,12 orexin-A. As to the method:
In a typical experiment the OX1 and OX2 receptor antagonistic activity of the compounds of the present invention was determined in accordance with the following experimental method. For intracellular calcium measurements, Chinese hamster ovary (CHO) cells expressing the rat orexin-1 receptor or the human orexin-2 receptor, are grown in Iscove's modified DMEM containing 2 mM L-glutamine, […], 1% hypoxanthine-thymidine supplement, 100 U/ml penicillin, 100 μg/ml streptomycin and 10% heat-inactivated fetal calf serum (FCS). The cells are seeded at 20,000 cells/well into Becton-Dickinson black 384-well clear bottom sterile plates coated with poly-D-lysine. All reagents were from GIBCO-Invitrogen Corp. The seeded plates are incubated overnight at 37° C. and 5% CO2. Ala-6,12 human orexin-A as the agonist is prepared as a 1 mM stock solution in 1% bovine serum albumin (BSA) and diluted in assay buffer (HBSS containing 20 mM HEPES, 0.1% BSA and 2.5 mM probenecid, pH7.4) for use in the assay at a final concentration of 70 pM. Test compounds are prepared as 10 mM stock solution in DMSO, then diluted in 384-well plates, first in DMSO, then assay buffer. On the day of the assay, cells are washed 3 times with 100 μl assay buffer and then incubated for 60 min (37° C., 5% CO2) in 60 μl assay buffer containing […] Fluo-4AM ester, 0.02% pluronic acid, and 1% BSA. The dye loading solution is then aspirated and cells are washed 3 times with 100 μl assay buffer. 30 μl of that same buffer is left in each well. Within the Fluorescent Imaging Plate Reader (FLIPR, Molecular Devices), test compounds are added to the plate in a volume of 25 μl, incubated for 5 min and finally 25 μl of agonist is added. Fluorescence is measured for each well at 1 second intervals for 5 minutes and the height of each fluorescence peak is compared to the height of the fluorescence peak induced by 70 pM Ala-6,12 orexin-A with buffer in place of antagonist. For each antagonist, IC50 value (the concentration of compound needed to inhibit 50% of the agonist response) is determined. Alternatively, compound potency can be assessed by a radioligand binding assay (described in Bergman et. al. Bioorg. Med. Chem. Lett. 2008, 18, 1425-1430) in which the inhibition constant (Ki) is determined in membranes prepared from CHO cells expressing either the OX1 or OX2 receptor. The intrinsic orexin receptor antagonist activity of a compound which may be used in the present invention may be determined by these assays.

Sequence of human orexin-2 receptor (O43614 whole entry): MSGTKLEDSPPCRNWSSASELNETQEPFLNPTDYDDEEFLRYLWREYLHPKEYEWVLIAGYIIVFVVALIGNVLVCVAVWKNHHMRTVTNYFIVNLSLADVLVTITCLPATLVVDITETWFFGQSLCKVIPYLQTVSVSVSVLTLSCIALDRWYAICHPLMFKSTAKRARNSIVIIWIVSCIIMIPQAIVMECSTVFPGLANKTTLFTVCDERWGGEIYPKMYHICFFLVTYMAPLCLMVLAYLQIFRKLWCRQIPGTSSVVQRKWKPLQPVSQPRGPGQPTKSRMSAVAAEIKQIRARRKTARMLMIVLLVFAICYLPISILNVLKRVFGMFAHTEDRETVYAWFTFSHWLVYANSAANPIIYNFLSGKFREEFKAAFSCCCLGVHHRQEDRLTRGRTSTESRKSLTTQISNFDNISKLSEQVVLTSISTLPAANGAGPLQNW

Usually IC50 stands for the concentration that inhibits the measured activity by half. For the compound `Cc1oc(C[C@H]2CCCCN2C(=O)c2ccccc2CC(F)F)nc1C(C)(C)O` [Example 12, (R)-(2-(2,2-difluoroethyl)phenyl)(2-((4-(2-hydroxypropan-2-yl)-5-methyloxazol-2-yl)methyl)piperidin-1-yl)methanone], the IC50 worked out at 2.18 µM at hOX1R and 0.098 µM on human orexin-2 receptor.
With `Cc1oc(C[C@H]2CCCCN2C(=O)c2ccccc2C2CCC2)nc1C(C)(C)O` [Example 24, (R)-(2-cyclobutylphenyl)(2-((4-(2-hydroxypropan-2-yl)-5-methyloxazol-2-yl)methyl)piperidin-1-yl)methanone], the values for the 50% inhibitory concentration (IC50) on hOX1R and on human orexin-2 receptor were 0.184 µM and 0.114 µM, respectively.
In the case of `Cc1oc(C[C@H]2CCCCN2C(=O)c2cccnc2-c2ccccc2)nc1C(C)(C)O` [Example 14, (R)-(2-((4-(2-hydroxypropan-2-yl)-5-methyloxazol-2-yl)methyl)piperidin-1-yl)(2-phenylpyridin-3-yl)methanone], the IC50 came to 0.08 µM on hOX1R and 0.038 µM at human orexin-2 receptor.
Take `Cc1oc(C[C@H]2CCCCN2C(=O)c2nccnc2N2CCCC2)nc1C(C)(C)O` [Example 23, (R)-(2-((4-(2-hydroxypropan-2-yl)-5-methyloxazol-2-yl)methyl)piperidin-1-yl)(3-(pyrrolidin-1-yl)pyrazin-2-yl)methanone]: the IC50 at hOX1R and on human orexin-2 receptor was more than 10 µM each time.
In the case of `Cc1oc(C[C@H]2CCCCN2C(=O)c2ccc(F)cc2-n2nccn2)nc1C(C)(C)O` [Example 4, (R)-(4-fluoro-2-(2H-1,2,3-triazol-2-yl)phenyl)(2-((4-(2-hydroxypropan-2-yl)-5-methyloxazol-2-yl)methyl)piperidin-1-yl)methanone], the 50% inhibitory concentration (IC50) at hOX1R came out at 0.039 µM; on human orexin-2 receptor it was 0.025 µM.
With `CCCc1ccccc1C(=O)N1CCCC[C@@H]1Cc1nc(C(C)(C)O)c(C)o1` [Example 29, (R)-(2-((4-(2-hydroxypropan-2-yl)-5-methyloxazol-2-yl)methyl)piperidin-1-yl)(2-propylphenyl)methanone], the figures for the half-maximal inhibitory concentration (IC50) on hOX1R and at human orexin-2 receptor were 0.794 µM and 0.106 µM, respectively.
For the compound `Cc1oc(C[C@H]2CCCCN2C(=O)c2cccnc2-n2cccn2)nc1C(C)(C)O` [Example 13, (R)-(2-(1H-pyrazol-1-yl)pyridin-3-yl)(2-((4-(2-hydroxypropan-2-yl)-5-methyloxazol-2-yl)methyl)piperidin-1-yl)methanone], the half-maximal inhibitory concentration (IC50) at hOX1R was determined as 0.051 µM; at human orexin-2 receptor, 0.024 µM.
